Tests used:
[1] = Measurement of solubility of the compound in various solvents; format: physicochemical; settings: for Solubility TXB: TXB = Toluene:Xylene:Butyl cellosolve 7:2:1 (weight ratio); for Solubility TXB / Solubility Cyclopentanone / Solubility Toluene + Heated: 25 parts by weight per 100 parts of solution; for Solubility Toluene + Heated: room temperature solution heated about 10 secs with a heat gun; for Solubility Toluene: 25 parts by weight of compound per 100 parts by weight of total solution
Procedure: At this time, the content of each compound in the solvent was 25 parts by weight per 100 parts by weight of total solution. In the following Table 1, when the compound was completely dissolved in the solvent and the solution was transparent, it was indicated by ‘◯’; when the compound was dissolved in the solvent but the solution was opaque, it was indicated by ‘Δ’; and when the compound was not dissolved at all, it was indicated by ‘×’. And, the term ‘heated’ in Table 1 means that the solution of room temperature including the compound was heated for about 10 secs by using a heat gun.

[2] = Measurement of birefringence (Δn) of retardation films by Axoscan; format: physicochemical; settings: retardation film of the compound; solvent TXB, TAC film; Δn calculated from retardation value and film thickness
Procedure: The liquid crystal composition coated with a roll coating method on a TAC (triacetyl cellulose) film on which norbornene-based photoaligning material was coated, and dried at about 80° C. for 2 mins so as that the liquid crystal compound was aligned. And then, the retardation film was prepared by exposing the film to a non-polarized UV from a high pressure mercury lamp of 200 mW/cm^2 so as to fixing the oriented state of the liquid crystal.
Like above method, the compositions including any one of compounds RM-02 to RM-08 instead of compound RM-01 were prepared, and the retardation films were prepared respectively by using the same.
And, the retardation film was prepared substantially according to the same method as in Preparation Examples 1˜8, except that the compound of Chemical Formula 10 was used instead of compound RM-01.
Quantitative retardation values of the retardation films according to Preparation Examples 1˜8, Comparative Preparation Examples 1˜2, and Reference Example were measured by using Axoscan (made by Axomatrix Co.). At this time, the thickness of the film was independently measured and Δn was calculated from the obtained values.

C=CC(=O)OCCCCCCOc1ccc2cc(C(=O)Oc3ccc(OC(=O)c4ccc5cc(OCCCCCCOC(=O)C=C)ccc5c4)c([N+](=O)[O-])c3)ccc2c1 [RM-04]
Solubility TXB [1]: ∘
Solubility Cyclopentanone [1]: ∘
Solubility Toluene + Heated [1]: ∘
Δn (Solvent, Film) [2]: 0.20 (TXB, TAC)

C=CC(=O)OCCCOc1ccc(C(=O)Oc2ccc(OC(=O)c3ccc(OCCCOC(=O)C=C)cc3)c(C)c2)cc1 [RM257, reference compound]
Solubility TXB [1]: ∘
Solubility Cyclopentanone [1]: ∘
Solubility Toluene + Heated [1]: ∘
Δn (Solvent, Film) [2]: 0.12 (TXB, TAC)

C=CC(=O)OCCCCCCOc1ccc2cc(C(=O)Oc3ccc(OC(=O)c4ccc5cc(OCCCCCCOC(=O)C=C)ccc5c4)c(S(C)(=O)=O)c3)ccc2c1 [RM-06]
Solubility TXB [1]: ∘
Solubility Cyclopentanone [1]: ∘
Solubility Toluene + Heated [1]: ∘
Δn (Solvent, Film) [2]: 0.20 (TXB, TAC)

C=CC(=O)OCCCOc1ccc2cc(C(=O)Oc3ccc(OC(=O)c4ccc5cc(OCCCOC(=O)C=C)ccc5c4)cc3)ccc2c1 [RM-09, reference compound]
Solubility in TXB mixed solvent [1]: not dissolved in TXB mixed solvent at all
Solubility in toluene [1]: not dissolved in toluene at all
Solubility in toluene with heating [1]: just opaque solution was obtained

C=CC(=O)OCCCOc1ccc2cc(C(=O)Oc3ccc(OC(=O)c4ccc5cc(OCCCOC(=O)C=C)ccc5c4)c(C=O)c3)ccc2c1 [RM-01]
Solubility TXB [1]: ∘
Solubility Cyclopentanone [1]: ∘
Solubility Toluene + Heated [1]: ∘
Δn (Solvent, Film) [2]: 0.17 (TXB, TAC)

C=CC(=O)OCCCCCCOc1ccc2cc(C(=O)Oc3ccc(OC(=O)c4ccc5cc(OCCCCCCOC(=O)C=C)ccc5c4)c(C=O)c3)ccc2c1 [RM-02]
Solubility TXB [1]: ∘
Solubility Toluene + Heated [1]: ∘
Δn (Solvent, Film) [2]: 0.18 (TXB, TAC)

C=CC(=O)OCCCOc1ccc2cc(C(=O)Oc3ccc(OC(=O)c4ccc5cc(OCCCOC(=O)C=C)ccc5c4)c(S(=O)(=O)CC)c3)ccc2c1 [RM-07]
Solubility TXB [1]: ∘
Solubility Cyclopentanone [1]: ∘
Solubility Toluene + Heated [1]: ∘
Solubility Toluene [1]: ∘
Δn (Solvent, Film) [2]: 0.19 (TXB, TAC)

C=CC(=O)OCCCOc1ccc2cc(C(=O)Oc3ccc(OC(=O)c4ccc5cc(OCCCOC(=O)C=C)ccc5c4)c([N+](=O)[O-])c3)ccc2c1 [RM-03]
Solubility TXB [1]: ∘
Solubility Cyclopentanone [1]: ∘
Solubility Toluene + Heated [1]: ∘
Solubility Toluene [1]: ∘
Δn (Solvent, Film) [2]: 0.17 (TXB, TAC)

C=CC(=O)OCCCCCCOc1ccc2cc(C(=O)Oc3ccc(OC(=O)c4ccc5cc(OCCCCCCOC(=O)C=C)ccc5c4)c(S(=O)(=O)CC)c3)ccc2c1 [RM-08]
Solubility TXB [1]: ∘
Solubility Cyclopentanone [1]: ∘
Solubility Toluene + Heated [1]: ∘
Δn (Solvent, Film) [2]: 0.22 (TXB, TAC)

C=CC(=O)OCCCCCCOc1ccc2cc(C(=O)Oc3ccc(OC(=O)c4ccc5cc(OCCCCCCOC(=O)C=C)ccc5c4)cc3)ccc2c1 [RM-10, reference compound]
Solubility in TXB mixed solvent [1]: not dissolved in TXB mixed solvent at all
Solubility in toluene [1]: not dissolved in toluene at all
Solubility in toluene with heating [1]: just opaque solution was obtained

C=CC(=O)OCCCOc1ccc2cc(C(=O)Oc3ccc(OC(=O)c4ccc5cc(OCCCOC(=O)C=C)ccc5c4)c(S(C)(=O)=O)c3)ccc2c1 [RM-05]
Solubility TXB [1]: ∘
Solubility Cyclopentanone [1]: ∘
Solubility Toluene + Heated [1]: ∘
Solubility Toluene [1]: ∘
Δn (Solvent, Film) [2]: 0.19 (TXB, TAC)
